The results in this text go back to patent US10358463B2, “Immunomodulators” (BRISTOL-MYERS SQUIBB COMPANY, priority 2016, dated 2019).

Broadly, the IC50 is the concentration that gives 50% inhibition. A low value points to higher potency.

Each structure is given as a SMILES string. Numbered stars: 1 amine (or outer) side, 2 acyl side, 3 side chain; on linkers, the order of the positions; unused ones are H or OH. Bridge positions count the residues as written; N and C are the ends. Square brackets hold non-standard residues; d marks the D form. Peptide text beside a SMILES is read from it. Trp(1-CH2CONHSO2Me) = CS(=O)(=O)NC(=O)Cn1cc(C[C@H](N)C(=O)O)c2ccccc21; X11 = O=C(O)Cc1nc(C[C@H](N[*:1])C(=O)[*:2])c2n1CCCC2; X6 = O=C([C@H](Cc1ccc2cnccc2c1)N[*:1])[*:2]; Phe(4-Cl) = N[C@@H](Cc1ccc(Cl)cc1)C(=O)O; Phe(4-F) = N[C@@H](Cc1ccc(F)cc1)C(=O)O; Hyp = O=C(O)[C@@H]1C[C@@H](O)CN1; NMeNle = CCCC[C@H](NC)C(=O)O; Pen = CC(C)(S)[C@H](N)C(=O)O; Pip = O=C(O)[C@@H]1CCCCN1; NMeA = CN[C@@H](C)C(=O)O; Dab = NCC[C@H](N)C(=O)O; Dap = NC[C@H](N)C(=O)O

In the test the target is T1, PD-1-Ig binding to PD-L1-TVMV-His (PD-L1-His) (Homo sapiens, UniProt Q9NZQ7).
T1 construct: hPDL1 (19-239)-TVMV-His; TVMV protease cleavage site (C); made in house; host or cells: HEK293T cells
Nature of the test: PD-1/PD-L1 Homogenous Time-Resolved Fluorescence (HTRF) binding assay. The note with it: PD-1-Ig (20 nM)/PD-L1-His (10 nM). An excerpt: The ability of the macrocyclic peptides of the present disclosure to bind to PD-L1 was investigated using a PD-1/PD-L1 Homogenous Time-Resolved Fluorescence (HTRF) binding assay.
Homogenous Time-Resolved Fluorescence (HTRF) Assays of Binding of Soluble PD-1 to Soluble PD-L1. Soluble PD-1 and soluble PD-L1 refers to proteins with carboxyl-end truncations that remove the transmembrane-spanning regions and are fused to heterologous sequences, specifically the Fc portion of the human immunoglobuling G sequence (Ig) or the hexahistidine epitope tag (His). All binding studies were performed in an HTRF assay buffer consisting of dPBS supplemented with 0.1% (w/v) bovine serum albumin and 0.05% (v/v) Tween-20. For the PD-1-Ig/PD-L1-His binding assay, inhibitors were pre-incubated with PD-L1-His (10 nM final) for 15 m in 4 μl of assay buffer, followed by addition of PD-1-Ig (20 nM final) in 1 μl of assay buffer and further incubation for 15 m. PD-L1 fusion proteins from either human, cynomologous macaques, mouse, or other species were used. HTRF detection was achieved using europium crypate-labeled anti-Ig monoclonal antibody (1 nM final) and allophycocyanin (APC) labeled anti-His monoclonal antibody (20 nM final). Antibodies were diluted in HTRF detection buffer and 5 μl was dispensed on top of binding reaction. The reaction was allowed to equilibrate for 30 minutes and signal (665 nm/620 nm ratio) was obtained using an EnVision fluorometer. Additional binding assays were established between PD-1-Ig/PD-L2-His (20 and 5 nM, respectively), CD80-His/PD-L1-Ig (100 and 10 nM, respectively) and CD80-His/CTLA4-Ig (10 and 5 nM, respectively). Binding/competition studies between biotinylated Compound No. 71 and human PD-L1-His were performed as follows. Macrocyclic peptide inhibitors were pre-incubated with PD-L1-His (10 nM final) for 60 minutes in 4 μl of assay buffer followed by addition of biotinylated Compound No. 71 (0.5 nM final) in 1 μl of assay buffer. Binding was allowed to equilibrate for 30 minutes followed by addition of europium crylated labeled Streptavidin (2.5 pM final) and APC-labeled anti-His (20 nM final) in 5 μl of HTRF buffer. The reaction was allowed to equilibrate for 30 m and signal (665 nm/620 nm ratio) was obtained using an EnVision fluorometer.
Recombinant Proteins. Carboxyl-truncated human PD-1 (amino acids 25-167) with a C-terminal human Ig epitope tag [hPD-1 (25-167)-3S-IG] and human PD-L1 (amino acids 18-239) with a C-terminal His epitope tag [hPD-L1(19-239)-tobacco vein mottling virus protease cleavage site (TVMV)-His] were expressed in HEK293T cells and purified sequentially by recombinant Protein A affinity chromatography and size exclusion chromatography. Human PD-L2-His (Sino Biologicals), CD80-His (Sino Biologicals), CTLA4-Ig (RnD Systems) were all obtained through commercial sources.
Background: Time-resolved FRET reads energy transfer from a long-lived donor to a nearby acceptor.

T1 sequence (Q9NZQ7 with tags, fused parts or gaps): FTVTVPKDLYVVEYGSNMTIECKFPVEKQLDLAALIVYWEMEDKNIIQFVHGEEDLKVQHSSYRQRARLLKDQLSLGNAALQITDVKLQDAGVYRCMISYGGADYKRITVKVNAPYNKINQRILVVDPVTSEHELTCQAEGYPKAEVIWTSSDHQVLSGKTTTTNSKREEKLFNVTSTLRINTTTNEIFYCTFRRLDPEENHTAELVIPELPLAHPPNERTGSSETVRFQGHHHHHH

`CCCC[C@H]1C(=O)N(C)[C@@H](CCCC)C(=O)N[C@@H](CCCNC(=N)N)C(=O)N[C@H](C(=O)NCC(N)=O)CSCC(=O)N[C@@H](Cc2ccc(O)cc2)C(=O)N(C)[C@@H](C)C(=O)N[C@@H](CC(N)=O)C(=O)N2CCC[C@H]2C(=O)N[C@@H](Cc2cnc[nH]2)C(=O)N[C@@H](CC(C)C)C(=O)N2C[C@H](O)C[C@H]2C(=O)N[C@@H](Cc2c[nH]c3ccccc23)C(=O)N[C@@H](CO)C(=O)N[C@@H](Cc2ccc3cnccc3c2)C(=O)N1C` [Example 0001] ({CH2CO}-Y[NMeA]NPHL[Hyp]WS[X6][NMeNle][NMeNle]RCG-NH2; thioether N-14) returned a half-inhibitory concentration (IC50) (range class) of 100 to 990 nM.

The compound `CCCC[C@H]1C(=O)N(C)[C@@H](CCCC)C(=O)N[C@@H](CC(C)C)C(=O)N[C@H](C(=O)NCC(N)=O)CSCC(=O)N[C@@H](Cc2ccc(O)cc2)C(=O)N(C)[C@@H](C)C(=O)N[C@@H](CC(N)=O)C(=O)N2CCC[C@H]2C(=O)N[C@@H](CN)C(=O)N[C@@H](CC(C)C)C(=O)N2C[C@H](O)C[C@H]2C(=O)N[C@@H](Cc2c[nH]c3ccccc23)C(=O)N[C@@H](CCN)C(=O)N[C@@H](Cc2cn(CC(=O)NS(C)(=O)=O)c3ccccc23)C(=O)N1C` [Example 1001] ({CH2CO}-Y[NMeA]NP[Dap]L[Hyp]W[Dab][Trp(1-CH2CONHSO2Me)][NMeNle][NMeNle]LCG-NH2; thioether N-14) registered a 50% inhibitory concentration (IC50) (numeric value) of 4 nM.

`CCCC[C@H]1C(=O)N(C)[C@@H](CCCC)C(=O)N[C@@H](CC(C)C)C(=O)N[C@H](C(=O)NCC(N)=O)CSCC(=O)N[C@@H](Cc2ccc(O)cc2)C(=O)N(C)[C@@H](C)C(=O)N[C@@H](CC(=O)O)C(=O)N2CCC[C@H]2C(=O)N[C@@H](Cc2cnc[nH]2)C(=O)N[C@@H](CCCCN)C(=O)N2C[C@H](O)C[C@H]2C(=O)N[C@@H](Cc2c[nH]c3ccccc23)C(=O)N[C@@H](CCCCN)C(=O)N[C@@H](Cc2cn(Cc3nnn[nH]3)c3ccccc23)C(=O)N1C` [Example 1002]: under “range class”, the half-maximal inhibitory concentration (IC50) was 1 to 9.9 nM.

The compound `CCCC[C@H]1C(=O)N(C)[C@@H](CCCC)C(=O)N[C@@H](CC(C)C)C(=O)N[C@H](C(N)=O)C(C)(C)SCC(=O)N[C@@H](Cc2ccc(F)cc2)C(=O)N2CCCC[C@H]2C(=O)N[C@@H](CC(=O)O)C(=O)N2CCC[C@H]2C(=O)N[C@@H](CN)C(=O)N[C@@H](CCC(=O)O)C(=O)N2C[C@H](O)C[C@H]2C(=O)N[C@@H](Cc2c[nH]c3ccccc23)C(=O)N[C@@H](CCN)C(=O)N[C@@H](Cc2cn(CC(=O)NS(C)(=O)=O)c3ccccc23)C(=O)N1C` [Example 1003] ({CH2CO}-[Phe(4-F)][Pip]DP[Dap]E[Hyp]W[Dab][Trp(1-CH2CONHSO2Me)][NMeNle][NMeNle]L[Pen]-NH2; thioether N-14) showed an IC50 (range class) of 1 to 9.9 nM.

For the compound `CCCC[C@H]1C(=O)N(C)[C@@H](CCCC)C(=O)N[C@@H](CC(C)C)C(=O)N[C@H](C(N)=O)C(C)(C)SCC(=O)N[C@@H](Cc2ccc(OC)cc2)C(=O)N2CCCC[C@H]2C(=O)N[C@@H](CC(=O)O)C(=O)N2CCC[C@H]2C(=O)N[C@@H](CN)C(=O)N[C@@H](CCC(=O)O)C(=O)N2C[C@H](O)C[C@H]2C(=O)N[C@@H](Cc2c[nH]c3ccccc23)C(=O)N[C@@H](CCN)C(=O)N[C@@H](Cc2cn(CC(=O)NS(C)(=O)=O)c3ccccc23)C(=O)N1C` [Example 1004] ({CH2CO}-Y(Me)[Pip]DP[Dap]E[Hyp]W[Dab][Trp(1-CH2CONHSO2Me)][NMeNle][NMeNle]L[Pen]-NH2; thioether N-14), the half-maximal inhibitory concentration (IC50) (range class) was in the range of 1 to 9.9 nM.

For the compound `CCCC[C@H]1C(=O)N(C)[C@@H](CCCC)C(=O)N[C@@H](CC(C)C)C(=O)N[C@H](C(N)=O)C(C)(C)SCC(=O)N[C@@H](Cc2ccc(Cl)cc2)C(=O)N2CCCC[C@H]2C(=O)N[C@@H](CC(=O)O)C(=O)N2CCC[C@H]2C(=O)N[C@@H](CN)C(=O)N[C@@H](CCC(=O)O)C(=O)N2C[C@H](O)C[C@H]2C(=O)N[C@@H](Cc2c[nH]c3ccccc23)C(=O)N[C@@H](CCN)C(=O)N[C@@H](Cc2cn(CC(=O)NS(C)(=O)=O)c3ccccc23)C(=O)N1C` [Example 1005] ({CH2CO}-[Phe(4-Cl)][Pip]DP[Dap]E[Hyp]W[Dab][Trp(1-CH2CONHSO2Me)][NMeNle][NMeNle]L[Pen]-NH2; thioether N-14), the IC50 (range class) was in the range of 1 to 9.9 nM.

For the compound `CCCC[C@H]1C(=O)N(C)[C@@H](CCCC)C(=O)N[C@@H](CC(C)C)C(=O)N[C@H](C(N)=O)C(C)(C)SCC(=O)N[C@@H](Cc2ccc(F)cc2)C(=O)N2CCCC[C@H]2C(=O)N[C@@H](CC(=O)O)C(=O)N2CCC[C@H]2C(=O)N[C@@H](Cc2cnc[nH]2)C(=O)N[C@@H](CCC(=O)O)C(=O)N2C[C@H](O)C[C@H]2C(=O)N[C@@H](Cc2c[nH]c3ccccc23)C(=O)N[C@@H](CCN)C(=O)N[C@@H](Cc2cn(CC(=O)NS(C)(=O)=O)c3ccccc23)C(=O)N1C` [Example 1006] ({CH2CO}-[Phe(4-F)][Pip]DPHE[Hyp]W[Dab][Trp(1-CH2CONHSO2Me)][NMeNle][NMeNle]L[Pen]-NH2; thioether N-14), the concentration for half-maximal inhibition (IC50) (range class) was in the range of 1 to 9.9 nM.

The compound `CCCC[C@H]1C(=O)N(C)[C@@H](CCCC)C(=O)N[C@@H](CC(C)C)C(=O)N[C@H](C(N)=O)C(C)(C)SCC(=O)N[C@@H](Cc2ccc(OC)cc2)C(=O)N2CCCC[C@H]2C(=O)N[C@@H](CC(=O)O)C(=O)N2CCC[C@H]2C(=O)N[C@@H](Cc2cnc[nH]2)C(=O)N[C@@H](CCC(=O)O)C(=O)N2C[C@H](O)C[C@H]2C(=O)N[C@@H](Cc2c[nH]c3ccccc23)C(=O)N[C@@H](CCN)C(=O)N[C@@H](Cc2cn(CC(=O)NS(C)(=O)=O)c3ccccc23)C(=O)N1C` [Example 1007] ({CH2CO}-Y(Me)[Pip]DPHE[Hyp]W[Dab][Trp(1-CH2CONHSO2Me)][NMeNle][NMeNle]L[Pen]-NH2; thioether N-14) gave an IC50 (range class) of 1 to 9.9 nM.

For `CCCC[C@H]1C(=O)N(C)[C@@H](CCCC)C(=O)N[C@@H](CC(C)C)C(=O)N[C@H](C(N)=O)C(C)(C)SCC(=O)N[C@@H](Cc2ccc(Cl)cc2)C(=O)N2CCCC[C@H]2C(=O)N[C@@H](CC(=O)O)C(=O)N2CCC[C@H]2C(=O)N[C@@H](Cc2cnc[nH]2)C(=O)N[C@@H](CCC(=O)O)C(=O)N2C[C@H](O)C[C@H]2C(=O)N[C@@H](Cc2c[nH]c3ccccc23)C(=O)N[C@@H](CCN)C(=O)N[C@@H](Cc2cn(CC(=O)NS(C)(=O)=O)c3ccccc23)C(=O)N1C` [Example 1008] ({CH2CO}-[Phe(4-Cl)][Pip]DPHE[Hyp]W[Dab][Trp(1-CH2CONHSO2Me)][NMeNle][NMeNle]L[Pen]-NH2; thioether N-14), for the setting “range class”, the IC50 was in the range of 1 to 9.9 nM.

Where the note is “range class”, `CCCC[C@H]1C(=O)N(C)[C@@H](CCCC)C(=O)N[C@@H](CC(C)C)C(=O)N[C@H](C(=O)NCC(N)=O)CSCC(=O)N[C@@H](Cc2ccc(O)cc2)C(=O)N(C)[C@@H](C)C(=O)N[C@@H](CC(N)=O)C(=O)N2CCC[C@H]2C(=O)N[C@@H](CN)C(=O)N[C@@H](CC(C)C)C(=O)N2C[C@H](O)C[C@H]2C(=O)N[C@@H](Cc2c[nH]c3ccccc23)C(=O)N[C@@H](CCN)C(=O)N[C@@H](Cc2nc(CC(=O)O)n3c2CCCC3)C(=O)N1C` [Example 1009] ({CH2CO}-Y[NMeA]NP[Dap]L[Hyp]W[Dab][X11][NMeNle][NMeNle]LCG-NH2; thioether N-14) came in with an IC50 of 10 to 99 nM.

In the case of `CCCC[C@H]1C(=O)N(C)[C@@H](CCCC)C(=O)N[C@@H](CC(C)C)C(=O)N[C@H](C(N)=O)C(C)(C)SCC(=O)N[C@@H](Cc2ccc(O)cc2)C(=O)N2CCCC[C@H]2C(=O)N[C@@H](CC(=O)O)C(=O)N2CCC[C@H]2C(=O)N[C@@H](Cc2cnc[nH]2)C(=O)N[C@@H](CCC(=O)O)C(=O)N2C[C@H](O)C[C@H]2C(=O)N[C@@H](Cc2c[nH]c3ccccc23)C(=O)N[C@@H](CCN)C(=O)N[C@@H](Cc2cn(CC(=O)NS(C)(=O)=O)c3ccccc23)C(=O)N1C` [Example 1010] ({CH2CO}-Y[Pip]DPHE[Hyp]W[Dab][Trp(1-CH2CONHSO2Me)][NMeNle][NMeNle]L[Pen]-NH2; thioether N-14), under “range class”, the IC50 is 1 to 9.9 nM.
